Reference: patent EP4682145A1, “BENZOHETEROCYCLIC COMPOUND, AND PREPARATION METHOD THEREFOR AND USE THEREOF” (Cascade Pharmaceuticals, Inc., priority 2023, dated 2024)

Molecular target: T1, human FFAR1 (GPR40) (Homo sapiens, UniProt O14842)
T1 construct: Flag; expressed in transfected cells; host or cells: HEK293T
Experiment: NFAT-RE-based reporter gene activity assay (Dual-Glo luciferase) for GPR40 agonistic activity in co-transfected HEK293T cells
Format: cell-based
Details: 4-hour treatment; for Efficacy (%): class symbols
Summary of the method: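 HEK293T cells co-transfected with human FFAR1, NFAT-RE firefly luciferase and TK-Renilla plasmids; 24 h later treated 4 h with 10 half-log compound dilutions from 1 µM. Firefly/Renilla ratio normalised to DMSO; EC50 from four-parameter fit.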

T1 sequence (O14842 whole entry): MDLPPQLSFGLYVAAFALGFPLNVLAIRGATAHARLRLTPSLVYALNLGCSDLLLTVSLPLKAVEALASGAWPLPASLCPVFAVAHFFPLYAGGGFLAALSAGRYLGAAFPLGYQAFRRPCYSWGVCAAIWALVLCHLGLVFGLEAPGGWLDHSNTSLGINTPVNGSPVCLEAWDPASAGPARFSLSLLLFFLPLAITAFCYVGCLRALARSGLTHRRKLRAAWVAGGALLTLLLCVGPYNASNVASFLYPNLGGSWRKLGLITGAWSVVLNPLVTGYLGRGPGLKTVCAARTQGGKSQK

Structure (SMILES) | EC50 [nM] | Efficacy (%)
COc1ccc(F)c(N2CCC(c3oc4cc([C@@H](CC(=O)O)C5CC5)ccc4c3C(=O)Nc3cc(Cl)ccc3F)CC2)c1 [Compound 338] | 10 to 100 | †† (150 ≥ Efficacy (%) > 100)
CCc1ccc(Cl)c(NC(=O)c2c(C3CCN(c4cc(OC)ccc4F)CC3)oc3cc([C@@H](CC(=O)O)C4CC4)ccc23)c1 [Compound 339] | ≤ 10 | †† (150 ≥ Efficacy (%) > 100)
COc1ccc(F)c(N2CCC(c3oc4cc([C@@H](CC(=O)O)C5CC5)ccc4c3C(=O)Nc3cc(C(F)(F)F)ccc3Cl)CC2)c1 [Compound 340] | < 10 | ††† (Efficacy (%) > 150)
COc1ccc(F)c(N2CCC(c3oc4cc([C@@H](CC(=O)O)C5CC5)ccc4c3C(=O)Nc3cc(F)ccc3Cl)CC2)c1 [Compound 341] | ≤ 10 | †† (150 ≥ Efficacy (%) > 100)
COc1ccc(F)c(N2CCC(c3oc4cc([C@@H](CC(=O)O)C5CC5)ccc4c3C(=O)Nc3cc(F)ccc3Br)CC2)c1 [Compound 342] | ≤ 10 | †† (150 ≥ Efficacy (%) > 100)
COc1ccc(F)c(N2CCC(c3oc4cc([C@@H](CC(=O)O)C5CC5)ccc4c3C(=O)Nc3cc(C)ccc3Cl)CC2)c1 [Compound 343] | ≤ 10 | ††† (Efficacy (%) > 150)
COc1cccc(N2CCC(c3oc4cc(C(CC(=O)O)C5CC5)ccc4c3C(=O)NC3CCCCC3)CC2)c1 (centres unmarked) [Compound 344] | 100 to 500 | †† (150 ≥ Efficacy (%) > 100)
COc1cccc(N2CCC(c3oc4cc(C(CC(=O)O)C5CC5)ccc4c3C(=O)NC34CC(C3)C4)CC2)c1 (centres unmarked) [Compound 345] | 100 to 500 | †† (150 ≥ Efficacy (%) > 100)
COc1cccc(N2CCC(c3oc4cc(C(CC(=O)O)C5CC5)ccc4c3C(=O)NC3CCC(C)(C)CC3)CC2)c1 (centres unmarked) [Compound 348] | 100 to 500 | †† (150 ≥ Efficacy (%) > 100)
COc1cccc(N2CCC(c3oc4cc(C(CC(=O)O)C5CC5)ccc4c3C(=O)NC34CC5CC(CC(C5)C3)C4)CC2)c1 (centres unmarked) [Compound 349] | 100 to 500 | †† (150 ≥ Efficacy (%) > 100)
COc1cccc(N2CCC(c3oc4cc(C(CC(=O)O)C5CC5)ccc4c3C(=O)NC34CC5CC(C)(CC(C)(C5)C3)C4)CC2)c1 (centres unmarked) [Compound 351] | 10 to 100 | †† (150 ≥ Efficacy (%) > 100)
COc1cccc(N2CCC(c3oc4cc(C(CC(=O)O)C5CC5)ccc4c3C(=O)NC3C4CC5CC(C4)CC3C5)CC2)c1 (centres unmarked) [Compound 352] | 10 to 100 | †† (150 ≥ Efficacy (%) > 100)
COc1cccc(N2CCC(c3oc4cc(C(CC(=O)O)C5CC5)ccc4c3C(=O)NC34CC5CC(CC(C)(C5)C3)C4)CC2)c1 (centres unmarked) [Compound 353] | 100 to 500 | ††† (Efficacy (%) > 150)
COc1cccc(N2CCC(c3oc4cc([C@@H](CC(=O)O)C5CC5)ccc4c3C(=O)NC34CC5CC(C)(CC(C)(C5)C3)C4)CC2)c1 [Compound 354] | 100 to 500 | †† (150 ≥ Efficacy (%) > 100)
COc1cccc(N2CCC(c3oc4cc(C(CC(=O)O)C5CC5)ccc4c3C(=O)NCc3ccccc3)CC2)c1 (centres unmarked) [Compound 355] | 100 to 500 | †† (150 ≥ Efficacy (%) > 100)
COc1cccc(N2CCC(c3oc4cc(C(CC(=O)O)C5CC5)ccc4c3C(=O)N3CCCC3)CC2)c1 (centres unmarked) [Compound 358] | 100 to 500 | † (100 ≥ Efficacy (%) > 50)
COc1cccc(N2CCC(c3oc4cc(C(CC(=O)O)C5CC5)ccc4c3C(=O)N3CCCC3C)CC2)c1 (centres unmarked) [Compound 359] | 100 to 500 | † (100 ≥ Efficacy (%) > 50)
COc1cccc(N2CCC(c3oc4cc(C(CC(=O)O)C5CC5)ccc4c3C(=O)N3CC4(CCC4)C3)CC2)c1 (centres unmarked) [Compound 360] | > 500 | ††† (Efficacy (%) > 150)
COc1cccc(N2CCC(c3oc4cc([C@@H](CC(=O)O)C5CC5)ccc4c3/C=C/C(C)(C)C)CC2)c1 [Compound 361] | 10 to 100 | †† (150 ≥ Efficacy (%) > 100)
